Assay results taken from US20130072523A1, “ANALOGUES FOR THE TREATMENT OR PREVENTION OF FLAVIVIRUS INFECTIONS” (VERTEX PHARMACEUTICALS INCORPORATED, priority 2009, published 2013).

Tested on: HCV 1b genotype
Assay: Cell-based luciferase reporter HCV (Ib) RNA replication assay (Huh-ET replicon cells)
Details: Hepatitis C virus, 96 h; HCV 1b genotype replicon, 4 days incubation, luciferase readout
Text: Cell-Based Luciferase Reporter HCV (Ib) RNA Replication Assay Cell Culture
Replicon cell lines Huh-5.2 are derived from the Huh-7 hepatocarcinoma cell line are maintained in culture as generally described in Krieger, N; Lohmann, V; Bartenschlager, R. Enhancement of hepatitis C virus RNA replication by cell culture-adaptive mutations. J. Virol. 2001, 75, 4614-4624. The Huh-5.2 cells contain the highly cell culture-adapted replicon I389 Luc-ubi-neo/NS3-375.1 construct that carries, in addition to the neomycin gene, an integrated copy to the firefly luciferase gene (Krieger, N; Lohmann, V; Bartenschlager, R. Enhancement of hepatitis C virus RNA replication by cell culture-adaptive mutations. J. Virol. 2001, 75, 4614-4624). This cell line allows measurement of HCV RNA replication and translation by measuring luciferase activity. It has been previously shown that the luciferase activity tightly follows the replicon RNA level in these cells (Krieger, N; Lohmann, V; Bartenschlager, R. Enhancement of hepatitis C virus RNA replication by cell culture-adaptive mutations. J. Virol. 2001, 75, 4614-4624). The Huh-ET cell line has the same features as those mentioned for Huh-5.2 cell line, except that ET cells are more robust and contain an adaptative mutation in the HCV NS4B gene instead of NS5A. Both cell lines are maintained in cultures at a sub-confluent level (<85%) as the level of replicon RNA is highest in actively proliferating cells. The culture media used for cell passaging consist of DMEM (Gibco BRL Laboratories, Mississauga, ON, Canada) supplemented with 10% foetal bovine serum with 1% penicilin/streptomycin, 1% glutamine, 1% sodium pyruvate, 1% non-essential amino acids, and 180 μg/ml of G418 final concentration. Cells are incubated at 37° C., in an atmosphere of 5% CO2 and passaged twice a week to maintain sub-confluence.
Approximately 3000 viable Huh-ET cells (100 μl) are plated per well in a white opaque 96-well microtiter plate. The cell culture media used for the assay is the same as described above except that it contains no G418 and no phenol red. After an incubation period of 3-4 hours at 37° C. in a 5% CO2 incubator, compounds (100 μl) are added at various concentrations. Cells are then further incubated for 4 days at 37° C. in a 5% CO2 incubator. Thereafter, the culture media is removed and cells are lysed by the addition of 95 μL of the luciferase buffer (luciferin substrate in buffered detergent). Cell lysates are incubated at room temperature and protected from direct light for at least 10 minutes. Plates are read for luciferase counts using a luminometer (Wallac MicroBeta Trilux, Perkin Elmer™, MA, USA).
The 50% inhibitory concentrations (IC50s) for inhibitory effect are determined from dose response curves using eleven concentrations per compound in duplicate. Curves are fitted to data points using nonlinear regression analysis, and IC50s are interpolated from the resulting curve using GraphPad Prism software, version 2.0 (GraphPad Software Inc., San Diego, Calif., USA).
EC50 ranges are presented in micromolar as follows: μM+++<=0.005<++<=5.0<+.

| SMILES | IC50 [nM] |
| --- | --- |
| COC(=O)N[C@H](C(=O)N1CC(C)(C)C[C@H]1c1ncc(C#Cc2ccc(C#Cc3cnc([C@@H]4CC(C)(C)CN4C(=O)[C@@H](NC(=O)OC)C(C)C)[nH]3)cc2)[nH]1)C(C)C [Example 43] | ≤ 5 |
| COC(=O)N[C@H](C(=O)N1C[C@@H](C)C[C@H]1c1nc(-c2cc3sc(-c4c[nH]c([C@@H]5C[C@H](C)CN5C(=O)[C@@H](NC(=O)OC)C(C)C)n4)cc3s2)c[nH]1)C(C)C [Compound 26] | ≤ 5 |
| COC(=O)N[C@H](C(=O)N1CC(C)(C)C[C@H]1c1nc(C)c(C#Cc2ccc(C#Cc3[nH]c([C@@H]4CC(C)(C)CN4C(=O)[C@@H](NC(=O)OC)C(C)C)nc3C)cc2)[nH]1)C(C)C [Example 30] | ≤ 5 |
| COC(=O)N[C@H](C(=O)N1C[C@@H](C)C[C@H]1c1ncc(C#Cc2ccc(C#Cc3cnc([C@@H]4C[C@H](C)CN4C(=O)[C@@H](NC(=O)OC)C(C)C)[nH]3)c3c2OC(F)(F)O3)[nH]1)C(C)C [Compound 45] | ≤ 5 |
| COC(=O)N[C@H](C(=O)N1CCC[C@H]1c1ncc(C#Cc2ccc(C#Cc3cnc([C@@H]4CCCN4C(=O)[C@@H](NC(=O)OC)C(C)C)[nH]3)s2)[nH]1)C(C)C [Compound 3] | ≤ 5 |
| C[C@@H]1CN[C@H](c2ncc(C#Cc3ccc(C#Cc4cnc([C@@H]5C[C@H](C)CN5)[nH]4)cc3)[nH]2)C1 [Compound 24] | 5 to 5000 |
| COC(=O)N[C@H](C(=O)N1C[C@@H](C)C[C@H]1c1ncc(C#Cc2ccc(C#Cc3cnc([C@@H]4C[C@H](C)CN4)[nH]3)cc2)[nH]1)C(C)C [Compound 39] | 5 to 5000 |
| COC(=O)N[C@H](C(=O)N1C[C@@H](C)C[C@H]1c1nc(C)c(-c2cc3sc(-c4[nH]c([C@@H]5C[C@H](C)CN5C(=O)[C@@H](NC(=O)OC)C(C)C)nc4C)cc3s2)[nH]1)C(C)C [Compound 47] | ≤ 5 |
| C[C@H]1C[C@@H](c2ncc(C#Cc3ccc(C#Cc4cnc([C@@H]5C[C@H](C)CN5C(=O)OC(C)(C)C)[nH]4)cc3)[nH]2)N(C(=O)OC(C)(C)C)C1 [Compound 23] | 5 to 5000 |
| COC(=O)N[C@H](C(=O)N1C[C@@H](C)C[C@H]1c1ncc(C#Cc2cc3sc(C#Cc4cnc([C@@H]5C[C@H](C)CN5C(=O)[C@@H](NC(=O)OC)C(C)C)[nH]4)cc3s2)[nH]1)C(C)C [Compound 10] | ≤ 5 |
| [2H]c1c([2H])c(C#Cc2cnc([C@@H]3C[C@H](C)CN3C(=O)[C@@H](NC(=O)OC)C(C)C)[nH]2)c([2H])c([2H])c1C#Cc1cnc([C@@H]2C[C@H](C)CN2C(=O)[C@@H](NC(=O)OC)C(C)C)[nH]1 [Compound 5] | ≤ 5 |
| COC(=O)N[C@H](C(=O)N1CCC[C@H]1c1nc(C#CC#Cc2c[nH]c([C@@H]3CCCN3C(=O)[C@@H](NC(=O)OC)C(C)C)n2)c[nH]1)C(C)C [Compound 15] | 5 to 5000 |
| COC(=O)N[C@H](C(=O)N1C[C@H](C)C[C@H]1c1nc(C)c(C#Cc2ccc(C#Cc3[nH]c([C@@H]4C[C@@H](C)CN4C(=O)[C@@H](NC(=O)OC)C(C)C)nc3C)cc2)[nH]1)C(C)C [Compound 28] | ≤ 5 |
| COC(=O)N[C@H](C(=O)N1C[C@@H](C)C[C@H]1c1nc(C#Cc2ccc(C#Cc3c[nH]c([C@@H]4C[C@H](C)CN4C(=O)[C@@H](NC(=O)OC)C(C)C)n3)s2)c[nH]1)C(C)C [Compound 60] | ≤ 5 |
| COC(=O)N[C@H](C(=O)N1C[C@@H](C)C[C@H]1c1nc(C#Cc2ccc(C#Cc3c[nH]c([C@@H]4C[C@H](C)CN4C(=O)[C@@H](NC(=O)OC)C(C)C)n3)c(Cl)c2)c[nH]1)C(C)C [Compound 63] | ≤ 5 |
| COC(=O)N[C@H](C(=O)N1[C@@H](C)CC[C@H]1c1ncc(C#Cc2ccc(C#Cc3cnc([C@@H]4CC[C@H](C)N4C(=O)[C@@H](NC(=O)OC)C(C)C)[nH]3)cc2)[nH]1)C(C)C [Example 42] | ≤ 5 |
| COC(=O)N[C@H](C(=O)N1C[C@@H](C)C[C@H]1c1ncc(-c2ccc(-c3[nH]c([C@@H]4C[C@H](C)CN4C(=O)[C@@H](NC(=O)OC)C(C)C)nc3-c3cc4sccc4s3)cc2)[nH]1)C(C)C [Compound 58] | ≤ 5 |

| SMILES | IC50 [nM] |
| --- | --- |
| COC(=O)N[C@H](C(=O)N1C[C@@H](C)C[C@H]1c1ncc(C#Cc2ccc(C#Cc3cnc([C@@H]4C[C@H](C)CN4C(=O)[C@@H](NC(=O)OC)C(C)C)[nH]3)c3nsnc23)[nH]1)C(C)C [Compound 40] | ≤ 5 |
| COC(=O)N[C@H](C(=O)N[C@H](C(=O)N1C[C@@H](C)C[C@H]1c1ncc(C#Cc2ccc(C#Cc3cnc([C@@H]4C[C@H](C)CN4C(=O)[C@@H](NC(=O)OC)C(C)C)[nH]3)cc2)[nH]1)C(C)C)C(C)C [Compound 46] | ≤ 5 |
| COC(=O)N[C@H](C(=O)N1CCC[C@H]1c1nc(C#Cc2cc3sc(C#Cc4c[nH]c([C@@H]5CCCN5C(=O)[C@@H](NC(=O)OC)C(C)C)n4)cc3s2)c[nH]1)C(C)C [Compound 14] | ≤ 5 |
| COC(=O)N[C@H](C(=O)N1C[C@@H](C)C[C@H]1c1nc(C)c(C#Cc2ccc(C#Cc3[nH]c([C@@H]4C[C@H](C)CN4C(=O)[C@@H](NC(=O)OC)C(C)C)nc3C)c(F)c2)[nH]1)C(C)C [Compound 31] | ≤ 5 |
| COC(=O)N[C@H](C(=O)N1CCC[C@H]1c1ncc(C#Cc2ccc(C#Cc3cnc([C@@H]4CCCN4C(=O)[C@@H](NC(=O)OC)C(C)C)[nH]3)c3c2OCO3)[nH]1)C(C)C [Compound 2] | ≤ 5 |
| COC(=O)N[C@H](C(=O)N1C[C@@H](C)C[C@H]1c1nc(C#Cc2ccc(C#Cc3c[nH]c([C@@H]4C[C@H](C)CN4C(=O)[C@@H](NC(=O)OC)C(C)C)n3)c(C)c2)c[nH]1)C(C)C [Compound 16] | ≤ 5 |
| COC(=O)N[C@H](C(=O)N1C[C@@H](C)C[C@H]1c1nc(C)c(C#Cc2cc(F)c(C#Cc3[nH]c([C@@H]4C[C@H](C)CN4C(=O)[C@@H](NC(=O)OC)C(C)C)nc3C)cc2F)[nH]1)C(C)C [Compound 29] | ≤ 5 |
| COC(=O)N[C@H](C(=O)N1C[C@@H](C)C[C@H]1c1ncc(C#Cc2ccc(C#Cc3cnc([C@@H]4C[C@H](CO)CN4C(=O)[C@@H](NC(=O)OC)C(C)C)[nH]3)cc2)[nH]1)C(C)C [Compound 64] | ≤ 5 |
| COC(=O)N[C@H](C(=O)N1C[C@@H](C)C[C@H]1c1ncc(C#Cc2ccc(C#Cc3cnc([C@@H]4C[C@H](C)CN4C(=O)[C@H](NC(=O)OC)C(C)C)[nH]3)cc2)[nH]1)C(C)C [Compound 33] | ≤ 5 |
| COC(=O)N[C@H](C(=O)N1C[C@@H](C)C[C@H]1c1nc(C#Cc2ccc3nc(C#Cc4c[nH]c([C@@H]5C[C@H](C)CN5C(=O)[C@@H](NC(=O)OC)C(C)C)n4)ccc3c2)c[nH]1)C(C)C [Compound 55] | ≤ 5 |
| COC(=O)N[C@H](C(=O)N1C[C@@H](C)C[C@H]1c1nc(C#Cc2ccc(C#Cc3c[nH]c([C@@H]4C[C@H](C)CN4C(=O)[C@@H](NC(=O)OC)C(C)C)n3)c(C#N)c2)c[nH]1)C(C)C [Compound 62] | ≤ 5 |
| COC(=O)N[C@H](C(=O)N1C[C@@H](C)C[C@H]1c1nc(I)c(C#Cc2ccc(C#Cc3[nH]c([C@@H]4C[C@H](C)CN4C(=O)[C@@H](NC(=O)OC)C(C)C)nc3I)cc2)[nH]1)C(C)C [Compound 21] | ≤ 5 |
| COC(=O)N[C@H](C(=O)N1C[C@@H](C)C[C@H]1c1nc(C#Cc2ccc(C#Cc3c[nH]c([C@@H]4C[C@H](C)CN4C(=O)[C@@H](NC(=O)OC)[C@@H](C)OC)n3)cc2)c[nH]1)[C@@H](C)OC [Compound 7] | ≤ 5 |
| COC(=O)N[C@H](C(=O)N1C[C@@H](OC)C[C@H]1c1ncc(C#Cc2ccc(C#Cc3cnc([C@@H]4C[C@H](OC)CN4C(=O)[C@@H](NC(=O)OC)C(C)C)[nH]3)cc2)[nH]1)C(C)C [Compound 68] | ≤ 5 |
| COC(=O)N[C@H](C(=O)N1CCC[C@H]1c1nc(C#Cc2ccc(C#Cc3c[nH]c([C@@H]4CCCN4C(=O)[C@@H](NC(=O)OC)C(C)C)n3)c3ocnc23)c[nH]1)C(C)C [Compound 13] | ≤ 5 |
| COC(=O)N[C@H](C(=O)N1C[C@@H](C)C[C@H]1c1ncc(C#Cc2cc(C)c(C#Cc3cnc([C@@H]4C[C@H](C)CN4C(=O)[C@@H](NC(=O)OC)C(C)C)[nH]3)cc2C)[nH]1)C(C)C [Compound 8] | ≤ 5 |
| COC(=O)N[C@H](C(=O)N1C[C@@H](C)C[C@H]1c1nc(C#Cc2ccc3cc(C#Cc4c[nH]c([C@@H]5C[C@H](C)CN5C(=O)[C@@H](NC(=O)OC)C(C)C)n4)sc3c2)c[nH]1)C(C)C [Compound 67] | ≤ 5 |
